These results are taken from patent US20230000807A1, “CBD ORAL FORMULATION” (Clear Lake Research, LLC, priority 2020, published 2023).

For assay [1], the target named is T1, CB2 receptors (Homo sapiens, UniProt P34972). The experiment in a line: receptor affinity. It is filed as binding. The conditions noted are these: estimated; times the affinity of CBD. Here is the method: Because CB2 receptors have a low affinity for CBD, a relatively large amount of CBD should be used for efficacy. In a specific implementation, a thin film strip has 100 mg CBD. In alternatives, the oral thin film is as little as 20 mg CBD. Because CBD is a relatively expensive component, the ratio of CBD to other components is more prone to cost/efficacy trade-offs than other components of the formulation. Advantageously, a low does of CBD, of 50 mg or less, acts as a stimulant, making a 20 mg to 50 mg formulation appropriate for formulations that have a goal of reducing the amount of CBD necessary and meeting one of the goals of a concentration improver/mood enhancer, which is stimulation.
A greater proportion of CBD may be desirable for the purpose of binding to theorized CBD3 receptors or other presently poorly defined receptors with less affinity for CBD. A high dose of CBD, over 100 mg up to less than 250 mg can have a sedative effect that may be effective for certain individuals, though it is unlikely desirable to reach 250 mg. If CBD is replaced with by endocannabinoid with (an estimated) 1,000 times the affinity of CBD, such as 2-Lineoleoyl-glycerol (3443-82-1) or 2-Palmitolyl-glycerol (23470-00-0), an alternative implementation of the oral thin film could have 0.025 mg to 0.1 mg endocannabinoid, but the formulation would likely be much more expensive than CBD.

The conditions of assay [2]: applied topically; cited from earlier work.
Assay [3] concerns the target T1, CB2 receptors. The settings on record: cited from earlier work.

T1 sequence (P34972 whole entry): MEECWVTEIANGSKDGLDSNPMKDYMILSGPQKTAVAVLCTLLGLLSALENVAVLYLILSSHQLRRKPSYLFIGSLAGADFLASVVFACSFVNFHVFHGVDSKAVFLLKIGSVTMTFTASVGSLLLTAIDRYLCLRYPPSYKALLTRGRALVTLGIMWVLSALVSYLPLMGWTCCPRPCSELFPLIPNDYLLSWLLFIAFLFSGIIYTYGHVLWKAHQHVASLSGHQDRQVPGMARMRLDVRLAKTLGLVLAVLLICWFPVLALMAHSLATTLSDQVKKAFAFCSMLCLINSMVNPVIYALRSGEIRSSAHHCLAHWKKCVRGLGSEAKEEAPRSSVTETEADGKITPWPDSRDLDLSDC

For 2-Lineoleoyl-glycerol, the “affinity relative to CBD” value on CB2 receptors [1] is ~1,000 times.

In the case of 2-Palmitolyl-glycerol, the “affinity relative to CBD” value at CB2 receptors [1] is given as ~1,000 times.

For the molecule `C=C(C)[C@@H]1CCC(C)=C[C@H]1c1c(O)cc(CCCCC)cc1O` [CBD, cannabidiol], in assay [2], the “time to have a significant pain relief impact” value is “about 30 minutes”. The “affinity of CB2 receptors for the substance” value at CB2 receptors [3] is recorded as “low affinity”.
